Columns and labels:
[1] = test system: Nuclear-GFP BacMam 2.0 Virus (baculovirus); assay: Infectivity of PTM analog-labeled Nuclear-GFP BacMam baculovirus in U2-OS cells; type: cell-based; conditions: virus labeled in Sf9 cells with 50 uM analog; U2-OS cells incubated overnight with labeled virus; FIG. 5
Text: Inhibition of insect cell baculovirus infectivity with azido fatty acid analogs: The BacMam system uses a modified insect cell virus (baculovirus) as a vehicle to efficiently deliver and express genes in mammalian cells. A Nuclear-GFP BacMam 2.0 expression system (Invitrogen, C10602) was used as a model to determine if PTM analog labeling of the virus would affect mammalian cell infectivity. Viruses were labeled with various PTM analogs and used to infect mammalian cells. Infectivity was determined by the expression of nuclear-GFP, as viral entry into the cell is required for expression of GFP protein, […]
Characterization of BacMam virus production: To verify, quantitate, and normalize the amount of enriched viruses obtained from insect cell supernatants, samples of each virus were lysed in SDS sample preparation buffer (SPB), sonicated with a probe tip sonicator, and heated at 90C to completely dissolve the viral proteins. Viral protein concentrations of the lysates were then determined. […]
Mammalian cell infection protocol: To determine if the PTM analog-labeled viruses retain the ability to infect mammalian cells, 50,000 U2-OS cells (human osteosarcoma cell line) were plated onto a 6 well-chamber glass bottom plate. […] The following day cells were imaged on AMG EVOS fluorescence microscope at 10× or 20× magnification using both white light and GFP filters (FIG. 5). […]

[2] = test system: HIV; assay: Infectivity of azide-labeled HIV, luciferase reporter assay on TZM/BI reporter cell line; type: cell-based; conditions: HIVNL4-3 labeled in CEMx174 cells; virus incubated 12 hours on TZM/BI; single cycle replication system; two luciferase reagents; FIGS. 3 and 4
Experimental: CEMx174 cells were transfected with HIVNL4-3 in a T-150 flask and the virus production was monitored by reverse transcriptase activity until peak virus production occurred (usually 7 to 9 days post transfection). Prior to transfection, the CEMx174 cells were spiked with the following azide-modified biomolecules: 15-azidopentadecanoic acid (50-100 μM), 12-azidododecanoic acid (50-100 μM), tetraacetylated N-azidoacetylgalactosamine (20-40 μM), and tetraacetylated N-azidoacetyl-D-mannosamine (20-40 μM).
Labeled virus was also obtained from the transfected cells. More specifically, virus-containing supernatants were collected and virus was purified through 20% sucrose as previously described (Graham, D. R. et al., Proteomics 2008, 8:4919-30). The purified virus was then mixed with the CLICK-IT® detection reagent, tetramethylrhodamine (TAMRA) alkyne and the CLICK-IT® Protein Reaction Buffer Kit (Invitrogen, Carlsbad, Calif.). Virus samples were run on a one-dimensional gel to reveal azide-labeled viral proteins (FIG. 2). […]
To examine the effect of the azide-modified biomolecules on the innate biology of the virus, the azide-labeled virus from the transfected cells was isolated and tested in cell infection studies. […] Viral infectivity was determined by measuring cellular luciferase activities with two different luciferase reagents.

Structure (SMILES)	nuclear-GFP expression (viral entry) [1]	impact on the infectivity of the virus (cellular luciferase activity) [2]
[N-]=[N+]=NCCCCCCCCCCCCCCC(=O)O [15-azidopentadecanoic acid]	no nuclear-GFP expression	–
[N-]=[N+]=NCCCCCCCCCCCC(=O)O [12-azidododecanoic acid]	no nuclear-GFP expression	profound impact on the infectivity of the virus

From patent US20130209550A1, “Anti-Viral Azide Containing Compounds” (LIFE TECHNOLOGIES CORPORATION, priority 2010, published 2013)
